Structures can show the parent of a compound that is named as a salt.
Biological target: T1, Acetylcholinesterase (Rattus norvegicus, UniProt P37136)
T1 construct: the S1 fraction of a male Wistar rat cerebral cortex homogenate was used as a cholinesterase source; from tissue; host or cells: male Wistar rat cerebral cortex homogenate, S1 fraction
Test: Acetylcholinesterase inhibiting activity using (acetyl-[3H])-acetylcholine, S1 fraction of rat cerebral cortex homogenate
Format: biochemical, male Wistar rat
Settings: rat cerebral cortex homogenate S1 fraction; 30 minutes of incubation; read-out: Acetylcholinesterase inhibiting activity IC50
Description: The compounds according to the invention were examined for cholinesterase inhibiting activity using (acetyl-[^3 H])-acetylcholine. Thus, the S1 fraction of a male Wistar rat cerebral cortex homogenate was used as a cholinesterase source, and (acetyl-[^3 H])-acetylcholine (as substrate) and each test compound according to the invention were added and, after 30 minutes of incubation, the reaction was terminated. A toluene type scintillator was added, and the mixture was shaken, whereby the reaction product [^3 H]-acetic acid was transferred to the toluene layer. The cholinesterase activity was determined by counting said [^3 H]-acetic acid with a liquid scintillation counter.
The cholinesterase inhibiting activity of each test compound was expressed in terms of 50% inhibitory concentration (IC50).

T1 sequence (P37136 32-614): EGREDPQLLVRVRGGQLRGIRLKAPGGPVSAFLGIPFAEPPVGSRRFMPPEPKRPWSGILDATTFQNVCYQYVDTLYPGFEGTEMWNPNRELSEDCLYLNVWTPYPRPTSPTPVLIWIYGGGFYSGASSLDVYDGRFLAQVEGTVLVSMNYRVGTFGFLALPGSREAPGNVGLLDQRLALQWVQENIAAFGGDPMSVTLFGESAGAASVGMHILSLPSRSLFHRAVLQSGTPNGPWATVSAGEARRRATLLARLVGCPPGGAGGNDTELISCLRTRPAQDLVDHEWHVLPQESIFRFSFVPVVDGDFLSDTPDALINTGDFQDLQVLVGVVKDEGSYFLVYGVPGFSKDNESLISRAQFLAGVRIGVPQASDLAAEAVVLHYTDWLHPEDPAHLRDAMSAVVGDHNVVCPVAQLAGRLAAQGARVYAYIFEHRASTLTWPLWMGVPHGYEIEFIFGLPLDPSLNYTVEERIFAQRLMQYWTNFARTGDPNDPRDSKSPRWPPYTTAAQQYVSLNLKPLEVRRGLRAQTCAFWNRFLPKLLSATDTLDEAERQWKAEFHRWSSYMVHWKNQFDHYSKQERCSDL

O=C1c2ccc([N+](=O)[O-])cc2C(=O)N1CCCCN1CCc2ccccc2C1 [Compound 2-6]
IC50: 18000 nM

O=C1c2ccc([N+](=O)[O-])cc2C(=O)N1CCCCNCc1cccc2ccccc12 [Compound 8-2]
IC50: 2900 nM

CCN(CCCCCNC(=O)/C=C/c1ccc(O)cc1)Cc1ccccc1 [Compound 14-17]
IC50: 13000 nM

CCN(CCCCCN(C(C)=O)C(=O)/C=C/c1ccc(S(C)(=O)=O)cc1)Cc1ccccc1 [Compound 16-8]
IC50: 170 nM

CCN(CCCCCCCN1C(=O)c2ccc([N+](=O)[O-])cc2C1=O)Cc1ccccc1 [Compound 2-15]
IC50: 4600 nM

CCN(CCCCCNC(=O)/C=C/c1ccc([N+](=O)[O-])c(O)c1)Cc1ccccc1 [Compound 14-24]
IC50: 170 nM

CCN(CCCN1C(=O)c2ccc([N+](=O)[O-])cc2C1=O)Cc1ccccc1 [Compound 2-13]
IC50: 10000 nM

CCN(CCCCN(C(C)=O)C(=O)/C=C/c1ccc([N+](=O)[O-])cc1)Cc1ccccc1 [Compound 16-1]
IC50: 7300 nM

CCCN(CCCCN1C(=O)c2ccc([N+](=O)[O-])cc2C1=O)Cc1ccccc1 [Compound 2-16]
IC50: 1900 nM

CCN(CCCCCN1C(=O)c2ccc([N+](=O)[O-])cc2C1=O)Cc1cccc(Cl)c1 [Compound 2-20]
IC50: 240 nM

CCN(CCCCCNC(=O)/C=C/c1cccc(OC)c1)Cc1ccccc1 [Compound 14-19]
IC50: 9300 nM

CCN(CCCCCN1C(=O)c2ccc(C(=O)NC)cc2C1=O)Cc1ccccc1 [Compound 12-13]
IC50: 380 nM

CCN(CCCCCN(C(C)=O)C(=O)/C=C/c1cccc(OC)c1)Cc1ccccc1 [Compound 16-7]
IC50: 5800 nM

CCN(CCCCCNC(=O)/C=C/c1ccc(OC)cc1)Cc1ccccc1 [Compound 14-18]
IC50: 16000 nM

CCN(CCCCCNC(=O)/C=C/c1ccc(Cl)c([N+](=O)[O-])c1)Cc1ccccc1OC [Compound 18-1]
IC50: 220 nM

CCN(CCCCCNC(=O)/C=C/c1ccc([S+](C)[O-])cc1)Cc1ccccc1 (stereo not shown) [Compound 14-21]
IC50: 7500 nM

CCN(CCCCCN1C(=O)c2ccc(C(=O)O)cc2C1=O)Cc1ccccc1 [Compound 12-8, 2-[5-(N-benzyl-N-ethyl)aminopentyl]-1,3-dioxo-1H-isoindole-5-carboxylic acid hydrochloride]
IC50: 8800 nM

CCN(CCCCCN1C(=O)c2ccc(O)cc2C1=O)Cc1ccccc1 [Compound 12-4]
IC50: 2500 nM

CCN(CCCCCNC(=O)/C=C/c1ccc(SC)cc1)Cc1ccccc1 [Compound 14-20]
IC50: 21000 nM

CC(=O)N(CCCCN(C)Cc1ccccc1)C(=O)/C=C/c1ccc([N+](=O)[O-])cc1 [Compound 15, (E)-N-Acetyl-N-[4-(N-methyl-N-benzyl)aminobutyl]-3-(4-nitrophenyl)-2-propenamide hydrochloride]
IC50: 19000 nM

CCN(CCCCCNC(=O)/C=C/c1ccc(C)cc1)Cc1ccccc1 [Compound 14-15]
IC50: 16000 nM

CCN(CCCCCN1C(=O)c2ccc(C(=O)OC)cc2C1=O)Cc1ccccc1 [Compound 13, Methyl 2-[5-(N-benzyl-N-ethyl)aminopentyl]-1,3(2H)-dioxo-1H-isoindole-5-carboxylate hydrochloride]
IC50: 580 nM

CCN(CCCCCN1C(=O)c2ccc([N+](=O)[O-])cc2C1=O)Cc1ccccc1[N+](=O)[O-] [Compound 2-24]
IC50: 490 nM

CCN(CCCCCN1C(=O)c2ccc([N+](=O)[O-])cc2C1=O)Cc1ccccc1C [Compound 2-23]
IC50: 110 nM

CCN(CCCCCN(C(C)=O)C(=O)/C=C/c1ccc(C#N)cc1)Cc1ccccc1 [Compound 16-6]
IC50: 460 nM

CCN(CCCCCNC(=O)/C=C/c1ccc(S(C)(=O)=O)cc1)Cc1ccccc1 [Compound 14-22]
IC50: 3200 nM

CCN(CCCCCN1C(=O)c2ccc([N+](=O)[O-])cc2C1=O)Cc1ccc(OC)cc1 [Compound 2-18]
IC50: 270 nM

Cc1ccc(S(=O)(=O)Nc2ccc3c(c2)C(=O)N(CCCCN(C)Cc2ccccc2)C3=O)cc1 [Compound 5-2]
IC50: 37000 nM

CN(CCCCCN1C(=O)c2ccc([N+](=O)[O-])cc2C1=O)Cc1ccccc1 [Compound 2-2]
IC50: 1400 nM

CCN(CCCCCN1C(=O)c2ccc(NC(=O)c3ccccc3)cc2C1=O)Cc1ccccc1 [Compound 11-2]
IC50: 730 nM

CCN(CCCCCN1C(=O)c2ccc(OC(C)=O)cc2C1=O)Cc1ccccc1 [Compound 12-5]
IC50: 2100 nM

CCN(CCCCCN(C(C)=O)C(=O)/C=C/c1ccc([N+](=O)[O-])c(O)c1)Cc1ccccc1 [Compound 16-9]
IC50: 350 nM

CCN(CCCCCNC(=O)/C=C/c1ccc(C#N)cc1)Cc1ccccc1 [Compound 14-16]
IC50: 5000 nM

CN(CCCCN1C(=O)c2ccc(NS(=O)(=O)Cc3ccccc3)cc2C1=O)Cc1ccccc1 [Compound 5-3]
IC50: 9200 nM

CCN(CCCCCN1C(=O)c2ccc(C(=O)N(CC)CC)cc2C1=O)Cc1ccccc1 [Compound 12-9]
IC50: 980 nM

CCN(CCCCCN1C(=O)c2ccc(OS(C)(=O)=O)cc2C1=O)Cc1ccccc1 [Compound 12-12]
IC50: 380 nM

CCN(CCCCCN1C(=O)c2ccc(C)cc2C1=O)Cc1ccccc1 [Compound 12-11]
IC50: 1800 nM

CCN(CCCCCN1C(=O)c2ccc(N)cc2C1=O)Cc1ccccc1 [Compound 10, 5-Amino-2-[5-(N-benzyl-N-ethyl)aminopentyl]-1H -isoindole-1,3(2H)-dione dihydrochloride]
IC50: 1200 nM

CCN(CCCNC(=O)/C=C/c1ccc([N+](=O)[O-])cc1)Cc1ccccc1 [Compound 14-9]
IC50: 11000 nM

CN(CCCCCCCN1C(=O)c2ccc([N+](=O)[O-])cc2C1=O)Cc1ccccc1 [Compound 2-10]
IC50: 1800 nM

CCN(CCCCCCCNC(=O)/C=C/c1ccc([N+](=O)[O-])cc1)Cc1ccccc1 [Compound 14-10]
IC50: 15000 nM

CCCCN(CCCCN1C(=O)c2ccc([N+](=O)[O-])cc2C1=O)Cc1ccccc1 [Compound 2-11]
IC50: 1900 nM

CN(CCCCCCN1C(=O)c2ccc([N+](=O)[O-])cc2C1=O)Cc1ccccc1 [Compound 2-9]
IC50: 480 nM

CCN(CCCCCN(C(C)=O)C(=O)/C=C/c1cccc(N)c1)Cc1ccccc1 [Compound 20-2]
IC50: 2400 nM

CCN(CCCCCN1C(=O)c2ccc([N+](=O)[O-])cc2C1=O)Cc1ccccc1Cl [Compound 2-21]
IC50: 130 nM

CCN(CCCCCNC(=O)/C=C/c1ccc(Cl)cc1)Cc1ccccc1 [Compound 14-14]
IC50: 16000 nM

CCN(CCCCN1C(=O)c2ccc([N+](=O)[O-])cc2C1=O)Cc1ccccc1 [Compound 2-3]
IC50: 250 nM

CCN(CCCCCNC(=O)/C=C/c1ccccc1[N+](=O)[O-])Cc1ccccc1 [Compound 14-12]
IC50: 3900 nM

CCN(CCCCCN1C(=O)c2ccc(C(=O)c3ccccc3)cc2C1=O)Cc1ccccc1 [Compound 12-10]
IC50: 1100 nM

CCN(CCCCCN1C(=O)c2ccc(NS(=O)(=O)c3ccc(C)cc3)cc2C1=O)Cc1ccccc1 [Compound 11-4]
IC50: 2200 nM

CCN(CCCCCNC(=O)/C=C/c1ccc(S(C)(=O)=O)cc1)Cc1ccccc1OC [Compound 18-3]
IC50: 230 nM

CCN(CCCCCCN1C(=O)c2ccc([N+](=O)[O-])cc2C1=O)Cc1ccccc1 [Compound 2-14]
IC50: 660 nM

CCN(CCCCCNC(=O)/C=C/c1cccc([N+](=O)[O-])c1)Cc1ccccc1 [Compound 14-13]
IC50: 3000 nM

CCC(=O)N(CCCCCN(CC)Cc1ccccc1)C(=O)/C=C/c1ccc([N+](=O)[O-])cc1 [Compound 19-1]
IC50: 4300 nM

CCN(CCCCCCN(C(C)=O)C(=O)/C=C/c1ccc([N+](=O)[O-])cc1)Cc1ccccc1 [Compound 16-3]
IC50: 3000 nM

CCN(CCCCCN1C(=O)c2ccc([N+](=O)[O-])cc2C1=O)Cc1cccc(OC)c1 [Compound 2-26]
IC50: 45 nM

CCN(CCCCCN1C(=O)c2cccc([N+](=O)[O-])c2C1=O)Cc1ccccc1 [Compound 12-3]
IC50: 680 nM

CCN(CCCCCN1C(=O)c2ccc(Cl)cc2C1=O)Cc1ccccc1 [Compound 12-7]
IC50: 1300 nM

CN(CCCCN1C(=O)c2ccc(NC(=O)c3ccccc3)cc2C1=O)Cc1ccccc1 [Compound 4, 2-[4-(N-Benzyl-N-methyl)aminobutyl]-5-benzoylamino-1H-isoindole-1,3(2H)-dione]
IC50: 11000 nM

CCN(CCCCCNC(=O)/C=C/c1cc(OC)c(OC)c(OC)c1)Cc1ccccc1 [Compound 14-23]
IC50: 4100 nM

CC(C)N(CCCCN1C(=O)c2ccc([N+](=O)[O-])cc2C1=O)Cc1ccccc1 [Compound 2-7]
IC50: 490 nM

CCN(CCCCCNC(=O)/C=C/c1ccc(C#N)cc1)Cc1ccccc1OC [Compound 18-4]
IC50: 370 nM

CCN(CCCCCNC(=O)/C=C/c1cccc(N)c1)Cc1ccccc1 [Compound 20-1]
IC50: 19000 nM

CN(CCCCN1C(=O)c2ccc([N+](=O)[O-])cc2C1=O)Cc1ccccc1 [Compound 1, 2-[4-(N-Benzyl-N-methyl)aminobutyl]-5-nitro-1H--isoindole-1,3(2H)-dione hydrochloride]
IC50: 9500 nM

CCN(CCCCCN1C(=O)c2ccc([N+](=O)[O-])cc2C1=O)Cc1cccc(OC)c1OC [Compound 2-27]
IC50: 270 nM

CCN(CCCCCN1C(=O)c2ccc(NS(C)(=O)=O)cc2C1=O)Cc1ccccc1 [Compound 11-6]
IC50: 470 nM

CCN(CCCCCNC(=O)/C=C/c1ccc(NC(C)=O)cc1)Cc1ccccc1 [Compound 21-2]
IC50: 5700 nM

CCN(CCCCCN(C(C)=O)C(=O)/C=C/c1cccc([N+](=O)[O-])c1)Cc1ccccc1 [Compound 16-4]
IC50: 530 nM

CCN(CCCCCN1C(=O)c2ccc([N+](=O)[O-])cc2C1=O)Cc1cccc2ccccc12 [Compound 2-28]
IC50: 110 nM

CCN(CCCCCN1C(=O)c2ccc([N+](=O)[O-])cc2C1=O)Cc1ccccc1F [Compound 2-22]
IC50: 270 nM

From US5025033A, “Alkylene diamines” (Takeda Chemical Industries, Ltd., priority 1988, dated 1991)
